From US6630125B2, “18F-labeled choline analogs” (priority 2000, dated 2003)
Where two headings read alike, the source gives them in different places. Blank lines part the entries; values can stand above or below the compound they belong to.

How the values were obtained:
[1] = tested on: patients with prostate cancer; test: PET imaging in patients with prostate cancer
Experimental: The distribution of FCH in PET imaging studies was evaluated in 14 patients with prostate cancer, 14 patients with breast cancer, and 5 patients with brain tumors. Imaging was performed using the Advance PET scanner (GE Medical Systems, Milwaukee, Wis.). […] In prostate cancer patients, a transmission scan of the pelvic region was obtained before administration of radiotracer. FCH (2.5-5 mCi) was administered intravenously, and dynamic imaging of the pelvis region was commenced for 20-30 min. During image reconstruction, the emission data in the pelvic region were corrected for photon attenuation using the transmission scan. Immediately following the dynamic scan, a whole-body emission scan was performed without transmission scanning for attenuation correction. The images were reconstructed using an Ordered Subset Expectation Maximum (OS-EM) algorithm. Regions-of-interest were drawn manually on the attenuation corrected images for evaluation of FCH kinetics in tissues. Standardized uptake values of FCH uptake in tissues were calculated using the attenuation-corrected images according to the equation: [formula]
Patient 2: Transmission and FCH emission scans of a person with hormone naive clinical stage T2 prostate cancer were commenced over the lower pelvis.
The same patient was scanned with FDG within the same week (FIG. 8).
Patient 4: A person with a history of clinical stage T3b prostate cancer treated by radical retropubic prostatectomy was diagnosed with metastatic disease by bone scan. FCH-PET imaging was performed before and after initiating androgen deprivation therapy. In the first study, whole-body emission scanning was started 5 min after injection, beginning at the pelvic region in order to image the pelvis and prostatic bed before arrival of urinary radioactivity. […] The patient was rescanned 2 weeks after initiating androgen deprivation therapy.
Patient 5: A person was initially diagnosed five years prior with locally advanced clinical stage T3NOMO prostate cancer and underwent radical prostatectomy followed by external beam radiation to the prostate bed. […] The patient was then treated with Zolex and Casodex.

[2] = tested on: patients with breast cancer; test: PET imaging in patients with breast cancer; type: in vivo, human; conditions: person, metastatic breast cancer
Experimental: In breast cancer patients, whole-body PET scans were obtained, beginning at 10 min post-administration of FCH. In patients with brain tumors, PET scans of the brain were obtained, beginning at 5 min post-administration of FCH.
Thirteen patients with metastatic breast cancer and one patient with both primary and metastatic breast cancer were each imaged with both FCH-PET and FDG-PET within a period of less than one month.
A person had undergone re-excision of right breast intraductal carcinoma 4 yr prior, then right modified radical mastectomy 3 yr prior followed by tamoxifen chemotherapy. Six months prior to the PET scans, metastatic breast cancer was detected by palpation (right breast sternal mass) and CT (mediastinal and hilar adenopathies, mass in right anterior pelvis). Tamoxifen therapy was stopped. […] Uptake of FCH was also observed in the corresponding tumors: sternal mass (SUV=14.6), mediastinal and hilar adenopathies (SUVs˜8.5), pelvic mass (SUV=6.5). […] Smaller metastases were indicated on the FCH-PET scan in the right chest wall and left lung that were not seen on the FDG-PET scan. Concerning the anterior pelvic tumor, there was observed a homogenous distribution of FDG across the tumor in the FDG-PET scan, whereas the FCH was preferentially distributed on the periphery of the tumor.

[3] = tested on: mice with PC-3 xenografts
Experimental: Body weight and tumor volume were measured weekly and tumor volume (mm3) was calculated using the formula S2×L/2, where S and L represent the small and large diameters of the tumor, respectively.
A prescribed duration of time was allowed before procurement of heart, liver, lung, blood, kidney, bone (femur), brain (whole), prostate gland, tumor, bladder, and skeletal muscle. The tissues were weighed, and counted for ^18F in a gamma counter, then dissolved in Solvable (Dupont, Boston Mass.) and counted for ^14C in a liquid scintillation counter. For the bladder, the percentage of the injected dose in the urine was determined. For all other tissues, radiotracer uptake was calculated as: […]

yeast choline kinase = biological target: T1, yeast choline kinase (Saccharomyces cerevisiae, UniProt P20485); test: In vitro phosphorylation by yeast choline kinase; type: biochemical; conditions: 1 μM choline; for In vitro phosphorylation: 25 mU/ml yeast choline kinase, 23° C., 10 min, n = 5
T1 sequence (P20485 1-582): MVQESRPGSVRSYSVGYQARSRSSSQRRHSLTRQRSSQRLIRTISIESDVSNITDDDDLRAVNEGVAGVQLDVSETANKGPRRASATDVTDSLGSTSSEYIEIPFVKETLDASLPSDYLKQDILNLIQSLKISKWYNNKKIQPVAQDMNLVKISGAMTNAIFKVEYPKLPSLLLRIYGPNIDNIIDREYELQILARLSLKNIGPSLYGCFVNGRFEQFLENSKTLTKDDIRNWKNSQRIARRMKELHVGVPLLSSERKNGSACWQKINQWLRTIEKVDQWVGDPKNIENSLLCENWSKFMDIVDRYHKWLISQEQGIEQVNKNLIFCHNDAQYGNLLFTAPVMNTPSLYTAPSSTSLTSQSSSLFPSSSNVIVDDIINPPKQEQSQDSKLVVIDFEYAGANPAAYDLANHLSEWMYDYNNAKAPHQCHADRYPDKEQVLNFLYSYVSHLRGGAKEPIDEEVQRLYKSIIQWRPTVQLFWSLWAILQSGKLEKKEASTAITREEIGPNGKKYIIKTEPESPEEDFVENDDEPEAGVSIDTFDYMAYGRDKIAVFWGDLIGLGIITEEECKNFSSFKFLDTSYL
Experimental: The test tube was gently agitated throughout the incubation period. The reaction was stopped by placing the tube in a boiling water bath for 2 min. To serve as controls, some samples were placed directly in the boiling water bath after addition of all substrates. […] The percentage of radioactivity converted to the phosphorylated form was calculated.

[4] = tested on: PC-3 prostate cancer cells; test: Analysis of radiolabeled metabolites in PC-3 prostate cancer cells; type: cell-based, human; conditions: PC-3 cells, 2 hr
Experimental: The primary hydrophilic metabolites of choline in mammals is phosphocholine and betaine. […] The HPLC system used a microprocessor-controlled solvent delivery system and a silica column (Adsorbosphere Silica (10μ), 250×4.6 mm, Alltech, Deerfield, Ill.). The column was kept at room temperature and the flow rate was maintained at 1.5 ml/min. […] Fractions of effluent were collected every 0.5 min and first counted for ^18F-radioactivity in a well-counter for experiments involving [^18F]FCH, then transferred to scintillation vials for counting for ^14C-radioactivity. The column was equilibrated for 6 min with Buffer A before injection. After the injection (<100 μl), Buffer A was delivered for 6 min which eluted betaine (3 min) from the column. […] Re-equilibration of the column with 100% A for 6 min preceded the next injection.
Methanol (1 ml) was added to each well and the cells were lysed by maintaining the temperature at 37° C. for 30 min. The methanol phase was transferred to a glass test tube. Each well was rinsed with an additional 0.5 ml methanol which was added to the original fraction. To each tube, 3 ml chloroform and 1 ml 0.25 M sodium phosphate (pH=4.5) were added to separate lipids from water-soluble molecules. After vigorous mixing of the samples for 1 min, the two phases were separated, and a 0.5 ml aliquot of each phase was counted for ^18F and ^14C radioactivity. The aqueous phase was further analyzed for water-soluble metabolites using the gradient-HPLC method previously described.
Cells incubated in 6-well plates for 2 hr with radiotracers were thoroughly washed to remove all extracellular radioactivity. The cells were lysed in methanol and the methanol solution added to chloroform to solubilize all lipophilic metabolites.

BALB/c nude mice = test: Acute toxicity study in mice; type: in vivo; conditions: 1 mg/kg body weight
Experimental: Four unanesthetized BALB/c nude mice were administered 1 mg/kg [^19F]FCH via tail vein injection and monitored for 48 hr. This dose represented an approximately 300,000 fold excess of FCH in comparison to the normal dose that a 70 kg person would receive in a [^18F]FCH study. The mice were euthanized at 48 hr.
Acute toxicity of 1 mg/kg body weight of [^19F]FCH was determined in four untreated BALB/c mice. […] Based on estimates of specific activity of the [^18F]FCH (2 Ci/mmol), the normal dose of FCH in the radiotracer preparation would be a factor of 300,000 times lower than the dose given in this toxicity study.

[5] = tested on: PC-3 human prostate cancer cells; test: Accumulation of radiotracers by cultured PC-3 cells; type: cell-based
Experimental: The incubation media utilized for the experiments differed according to the cancer cell type (Table 1). On the day of the study, the medium was refreshed using a volume of 1 ml in each well. Cells were incubated in control conditions or with the addition of metabolic and growth factor receptor inhibitors to test the sensitivity of uptake of the radiotracers to specific inhibitions. […] Following a 30-min incubation period, the radiotracers (e.g., FDG or FCH) were added (˜2 µCi/well) and the cells were incubated for 2 hr. The cells were washed three times with phosphate buffered saline solution, released from the plates by briefly incubating with 0.05% trypsin in DMEM, transferred to test tubes, and counted for F-18 radioactivity in a gamma counter. The amount of radioactivity in the cells was normalized by the dose administered to each well.
The present work studies the structure-activity relationships for purposes of optimization of the molecule for imaging prostate cancer. […] A number of structural analogs of choline were labeled as N-[^18F]fluoromethyl derivatives via the intermediate [^18F]fluorobromomethane (see Table 3). Uptake of the radiotracers was assessed in cultured PC-3 human prostate cancer cells and in a murine PC-3 xenograft model.

normal human subjects = conditions: cited from earlier work

SMILES: OC[C@H]1OC(O)[C@H]([18F])[C@@H](O)[C@@H]1O (some centres unmarked) [FDG, [^18F]fluoro-2-deoxy-glucose, reference compound]
SUV of osseous lesion (pubic ramus) ([1]; Example 11 patient, metastatic prostate cancer): 6.5 | SUV values relative to FCH in the same lesions ([1]; Patient 3): approximately one half | SUV index in osseous lesions ([1]; patient #3, FIG. 8): 4.1 | SUV of pelvic tumor / pelvic mass [2]: 9.5 | SUV of sternal mass [2]: 5.0 | SUVs of mediastinal and hilar adenopathies [2]: ~5.5 | Uptake in Blood ([3]; 45 min): 2.8 ± 0.009 % dose kg/100 g | Uptake in Brain ([3]; 45 min): 8.0 ± 0.7 % dose kg/100 g | Uptake in Heart ([3]; 45 min): 48.2 ± 17.9 % dose kg/100 g | Uptake in Kidney ([3]; 45 min): 5.3 ± 1.9 % dose kg/100 g | Uptake in Liver ([3]; 45 min): 1.5 ± 0.4 % dose kg/100 g | Uptake in Lung ([3]; 45 min): 7.4 ± 3.1 % dose kg/100 g | Uptake in Prostate ([3]; 45 min): 2.3 ± 0.4 % dose kg/100 g | Uptake in Skeletal Muscle ([3]; 45 min): 8.3 ± 0.4 % dose kg/100 g | Uptake in Tumor ([3]; 45 min): 8.9 ± 0.7 % dose kg/100 g

In vitro phosphorylation (yeast choline kinase): 55.9 ± 11.0% | Uptake in Blood ([3]; 10 min): 2.1 ± 0.3 % dose kg/100 g | Uptake in Brain ([3]; 10 min): 1.4 ± 0.7 % dose kg/100 g | Uptake in Heart ([3]; 10 min): 20.3 ± 7.2 % dose kg/100 g | Uptake in Kidney ([3]; 10 min): 99.0 ± 12.9 % dose kg/100 g | Uptake in Liver ([3]; 10 min): 52.3 ± 11.9 % dose kg/100 g | Uptake in Lung ([3]; 10 min): 26.0 ± 9.6 % dose kg/100 g | Uptake in Prostate ([3]; 10 min): 9.0 ± 6.8 % dose kg/100 g | Uptake in Skeletal Muscle ([3]; 10 min): 4.7 ± 1.7 % dose kg/100 g | Uptake in Tumor ([3]; 10 min): 3.2 ± 1.8 % dose kg/100 g | Uptake in Blood ([3]; 30 min): 1.5 ± 0.9 % dose kg/100 g | Uptake in Brain ([3]; 30 min): 1.0 ± 0.8 % dose kg/100 g | Uptake in Heart ([3]; 30 min): 9.7 ± 1.9 % dose kg/100 g | Uptake in Kidney ([3]; 30 min): 53.4 ± 7.3 % dose kg/100 g | Uptake in Liver ([3]; 30 min): 65.2 ± 19.4 % dose kg/100 g | Uptake in Lung ([3]; 30 min): 9.6 ± 6.6 % dose kg/100 g | Uptake in Prostate ([3]; 30 min): 5.9 ± 2.5 % dose kg/100 g | Uptake in Skeletal Muscle ([3]; 30 min): 2.5 ± 1.5 % dose kg/100 g | Uptake in Tumor ([3]; 30 min): 4.8 ± 1.6 % dose kg/100 g | Uptake in Blood ([3]; 60 min): 2.2 ± 1.0 % dose kg/100 g | Uptake in Brain ([3]; 60 min): 1.7 ± 0.6 % dose kg/100 g | Uptake in Heart ([3]; 60 min): 9.1 ± 2.5 % dose kg/100 g | Uptake in Kidney ([3]; 60 min): 41.5 ± 15.0 % dose kg/100 g | Uptake in Liver ([3]; 60 min): 67.1 ± 49.7 % dose kg/100 g | Uptake in Lung ([3]; 60 min): 16.7 ± 3.7 % dose kg/100 g | Uptake in Prostate ([3]; 60 min): 5.5 ± 2.6 % dose kg/100 g | Uptake in Skeletal Muscle ([3]; 60 min): 2.8 ± 1.7 % dose kg/100 g | Uptake in Tumor ([3]; 60 min): 6.7 ± 2.5 % dose kg/100 g | injected dose in the urinary bladder ([3]; at 30 min): 1%
SMILES: C[N+](C)(C)CCO [CH, [methyl-^14C]Choline, reference compound]
oxidation in the cancer cells (betaine / fluorobetaine by HPLC) [4]: negligible

SMILES: C[N+](C)(CF)CCO.[Cl-] [[^19F]FCH, Dimethylfluoromethyl-2-hydroxyethylammonium Chloride]
behavioural/movement abnormalities (BALB/c nude mice; 48 hr monitoring): Neither were any behavioural/movement abnormalities observed | deaths (BALB/c nude mice; tail vein, up to 48 hr, four mice): No deaths were observed

SMILES: C[N+](C)(CCO)CC[18F] [HARA-1, 2-[^18F]fluoroethyl-dimethyl-2-hydroxyethyl-ammonium, reference compound]
phosphorylation rate, less than for FCH (yeast choline kinase): approximately 30% | In vitro phosphorylation (yeast choline kinase): 43.4 ± 3.4 % | accumulation by cultured PC-3 cells compared with other tracers ([5]; control conditions): one fifth of the uptake of FCH | Uptake by PC-3 cancer cells, Control ([5]; control, 2 hr incubation): 0.32 ± 0.05 % dose/2 hr/105 cells plated | Uptake by PC-3 cells ([5]; inhibitor none): 0.322 ± 0.054 % dose/2 hr/10^5 cells plated | urinary excretion compared with CH (normal human subjects): more prominent urinary excretion of radioactivity
